The target of assay [1] is T1, Na/K-ATPase-associated Src (Sus scrofa, UniProt P05024).
T1 construct: The Na/K-ATPase was purified from pig kidney and the purified Src was purchased from Upstate; tissue Upstate (for the Src chain); host or cells: pig kidney
It counts as biochemical, pig. To be noted: for Effect on activity of Na/K-ATPase-associated Src, Na/K-ATPase stabilized in E1P: NEM and AMP-PNP used together; for Effect on activity of Na/K-ATPase-associated Src: purified pig kidney Na/K-ATPase treated with modifier or ouabain, incubated with purified Src. The method, then: The Na/K-ATPase was purified from pig kidney and the purified Src was purchased from Upstate. To stabilize the Na/K-ATPase in the E2P conformation, the purified Na/K-ATPase was treated by two different fluoride compounds (BeF and AIF) as described, washed and then incubated with Src. The ouabain-treated and control Na/K-ATPase/Src complex was used as positive and negative controls for the experiments, respectively. Similarly, the Na/K-ATPase was stabilized at the E1P state by NEM/AMPPNP as described and then analyzed.
The purified Na/K-ATPase was subjected to chymotrypsin or trypsin digestion as described. The digested enzyme was washed and assayed for Na/K-ATPase activity. The enzyme preparations with less than 25% activity was incubated with Src in 150 mM Na^+ medium in the presence or absence of 10 μM ouabain. The non-digested enzyme was used as control. […] Quantitative data was presented as mean±S.E. of at least 3 separate experiments. *, p<0.05; **, p<0.01.
The inventors utilized different chemical modifiers to stabilize the Na/K-ATPase in distinct conformational states and then assessed the conformation-dependent effect of Na/K-ATPase on Src. Fluoride compounds such as aluminum fluoride and beryllium fluoride, can interact with Na/K-ATPase as phosphate analogues, and stabilize the enzyme as well as other P-type ATPase in the E2P conformation.

For the next assay, the system named is LLC-PK1 cells. Nature of the assay: Western blot of Src and ERKs in LLC-PK1 cell lysates. It is filed as cell-based. The method, then:
FIG. 3E, FIG. 3F, and FIG. 3G: Cells were exposed to media containing different concentrations of K^+ or Na^+, and then lysed. Cell lysates were subjected to Western blot analyses of Src and ERKs as indicated. Quantitative data was presented as mean±S.E. of at three independent experiments. *, p<0.05; **, p<0.01.
To verify these findings, the inventors also conducted Western blot analyses of cell lysates after the cells were incubated in normal or low K^+ medium.
In general terms: In western blotting, separated proteins are transferred to a membrane and probed.

Another assay deals with T2, Na/K-ATPase/Src complex (Homo sapiens, UniProt P12931).
T2 construct: purchased
Nature of the assay: Ouabain-induced Src activation (Tyr418 autophosphorylation, Western blot) in a mixture of purified Na/K-ATPase and Src. To be noted: Src preincubated with peptide 15 min, pig kidney Na/K-ATPase 15 min, 1 μM ouabain 5 min, 2 mM ATP/Mg2+. It counts as biochemical. The method, then: FIG. 4. […] CD2C2 peptide was incubated with purified Src (the amount was indicated as molar ratio of Src/Cd2C2) for 15 minutes in PBS solution. Then purified Na/K-ATPase from pig kidney was added for another 15 minutes. After that, ouabain was added to the reaction system for 5 minutes, followed by addition of 2 mM Mg2+/ATP. The Src activity was determined by Western blot probing with anti-phosphorylated Tyr418. A representative Western blot was shown, and quantitative data was presented as mean±S.E. of at 3 separate experiments. **, p<0.01.
FIG. 7B, antagonizing ouabain-induced Src activation by CD2C2. Src was preincubated with indicated amount of CD2C2 peptide for 15 min in PBS. […] Then Src autophosphorylation was detected in the presence of 2 mM ATP/Mg^2+. […]
To support this notion, the inventors checked whether the peptides derived from C-terminus of CD2 can attenuate the binding between CD2 and Src. […] Then pull-down pellets were analyzed by Western blot with antibody against Src. […] Then Src autophosphorylation was detected in the presence of 2 mM ATP/Mg^2+. […]
The inventors incubated the test chemicals with commercially available purified Src for 15 minutes in PBS solution. […] The Src activity was determined by Western blot probing with anti-phosphorylated Tyr418. […] Both peptides were incubated in a 96 well plate, and the FRET energy transfer was measured using a spectra meter. […]

The target of another assay is Src SH2 domain (Homo sapiens, UniProt P12931). Nature of the assay: GST pull-down of GST-CD2 binding to Src in the absence and presence of peptides. To be noted: peptide incubated with GST-CD2 and Src for 15 min, Western blot with anti-Src antibody. On the procedure:
CD2C2 was added to a mixture of Src and GST-CD2 at indicated concentrations. Src in the pull-down products was analyzed by Western blot with anti-Src antibody.
To support this notion, the inventors checked whether the peptides derived from C-terminus of CD2 can attenuate the binding between CD2 and Src. Purified GST-CD2 was incubated with Src in the absence and presence of peptides for 15 min. Then pull-down pellets were analyzed by Western blot with antibody against Src. […] If CD2C2 peptide disrupts the SH2/CD2 interaction, the inventors expect that CD2C2 may abolish CTS-induced Src activation. To test that, the inventors preincubated Src with indicated amount of CD2 peptides for 15 min in PBS. Then purified pig kidney Na/K-ATPase was added for another 15 min. 1 μM ouabain was added to mixture for 5 min. Then Src autophosphorylation was detected in the presence of 2 mM ATP/Mg^2+. […] Therefore, to search for new antagonists, the inventors will perform the following four sets of experiments.

Entries after “also recorded” stand apart in the source; their conditions may differ.

For the compound `Nc1ncnc2c1ncn2[C@@H]1O[C@H](COP(=O)(O)OP(=O)(O)NP(=O)(O)O)[C@@H](O)[C@H]1O` [AMP-PNP, adenyl-5′-yl imidodiphosphate], the “Effect on activity of Na/K-ATPase-associated Src, Na/K-ATPase stabilized in E1P” value in assay [1] is given as “completely inhibited”.
Take `CCN1C(=O)C=CC1=O` [NEM, N-ethylmaleimide]: the “Effect on activity of Na/K-ATPase-associated Src, Na/K-ATPase stabilized in E1P” value in assay [1] is “completely inhibited”.
As to `[Be+2].[F-].[F-]` [beryllium fluoride], the “Effect on activity of Na/K-ATPase-associated Src” value in assay [1] is recorded as “sufficient to stimulate the Na/K-ATPase-associated Src”.
`C[C@@H]1O[C@@H](O[C@H]2C[C@@H](O)[C@]3(CO)[C@H]4[C@H](O)C[C@]5(C)[C@@H](C6=CC(=O)OC6)CC[C@]5(O)[C@@H]4CC[C@]3(O)C2)[C@H](O)[C@H](O)[C@H]1O` [ouabain]: the “Effect on cellular Src activity and ERKs” value in the assay on LLC-PK1 cells is “stimulated cellular Src activity”. In addition, in assay [1], the “Effect on activity of Na/K-ATPase-associated Src” value was “able to stimulate the Na/K-ATPase-associated Src”.
As for “STNCV EGTAR GIVVY TGD (STNCVEGTARGIVVYTGD; listed as Sus scrofa) [CD2C2, peptide derived from C-terminus of CD2 of Na/K-ATPase α1 subunit; ouabain antagonist]”, the “Antagonism of ouabain-induced Src activation” value in the assay with Na/K-ATPase/Src complex was “potent ouabain antagonist; also recorded: abolished ouabain-induced Src activation in a dose-dependent manner”; in the assay with Na/K-ATPase/Src complex (listed as SEQ ID NO:1), “abolishes ouabain-induced Src stimulation”. Besides, the “Competition with binding of GST-CD2 to Src (Src in pull-down products)” value in the assay with Src SH2 domain is “attenuates the binding of CD2 to Src; also recorded: able to compete with and block the binding of GST-CD2 to Src SH2 domain”; with Src SH2 domain (listed as SEQ ID NO:1), “disrupts the interaction of the ATPase CD2/Src SH2 domain”.
For the compound aluminum fluoride, the “Effect on activity of Na/K-ATPase-associated Src” value in assay [1] was “sufficient to stimulate the Na/K-ATPase-associated Src”.
